Counter-ions that a name gives are not always drawn. Like-named read-outs stand apart in the source and are kept apart here.
What was measured:
KRas G12C = KRas G12C (Homo sapiens, UniProt P01116, C118S/C51S/C80L/G12C); assay: KRas G12C Modification Assay (LCMS detection of covalent adduct); assay type: binding
Procedure, shortened: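 Cys-light KRas G12C mutant protein incubated with compound in K-Ras assay buffer, reactions quenched at set time points with 25 mM acetic acid and analysed by intact-protein LC/MS on a C-3 column. Deconvoluted mass heights expressed as percent of control (POC) relative to compound-free protein.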

[1] = test system: NCI-H358 cells (express KRas G12C), Phospho-ERK; assay: Cellular inhibition of KRas G12C: Phospho-ERK in NCI-H358 cells; assay type: cell-based; settings: Homo sapiens
Procedure, shortened: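 IC50 derived by 4-parameter fit of GAPDH-normalized pERK(Thr202/Tyr204) signal, as percent of DMSO control. Signal came from in-cell immunodetection with infrared secondaries after 3 h compound exposure of KRas G12C NCI-H358 cells at 0.5% DMSO.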

[2] = normalized percent of control, tested at 5 μM concentration for 3 hours
[3] = NCI-H358, 3 h, pERK(Thr202/Tyr204) normalized with GAPDH, NCI-H358 cells, 3 hours, read-out: IC50
[4] = pERK(Thr202/Tyr204) normalized with GAPDH, NCI-H358 cells, 3 hours, read-out: IC50

Compound	POC (KRas G12C; [2])	IC50 [1, 3] [µM]	POC (KRas G12C; 5 µM)	IC50 ([1]; NCI-H358, 3 h) [µM]	IC50 [1, 4] [µM]
C=CC(=O)N1CCN(c2nc(N3CCC(N(C)C)CC3)nc3c2CCN(c2cc(O)cc4ccccc24)C3)CC1 [Example 17, 1-(4-(2-(4-(dimethylamino)piperidin-1-yl)-7-(3-hydroxynaphthalen-1-yl)-5,6,7,8-tetrahydropyrido[3,4-d]pyrimidin-4-yl)piperazin-1-yl)prop-2-en-1-one]	B (“B”>25% POC−≤50% POC)	> 1			
C=CC(=O)N1CCN(c2nc(OCC(C)N(C)C)nc3c2CCN(c2cc(O)cc4ccccc24)C3)CC1 (centres unmarked) [Example 73, 1-(4-(2-(2-(dimethylamino)propoxy)-7-(3-hydroxynaphthalen-1-yl)-5,6,7,8-tetrahydropyrido[3,4-d]pyrimidin-4-yl)piperazin-1-yl)prop-2-en-1-one]	C (“C”>50% POC)	> 1			
C=CC(=O)N1CCN(c2nc(OC[C@@H]3CCCN3C)nc3c2CCN(c2cccc4ccccc24)C3)[C@H](C)C1 [Example 353, 1-[(3R)-3-methyl-4-[2-[[(2S)-1-methylpyrrolidin-2-yl]methoxy]-7-(1-naphthyl)-6,8-dihydro-5H-pyrido[3,4-d]pyrimidin-4-yl]piperazin-1-yl]prop-2-en-1-one]	C (“C”>50% POC)	> 1			
CC(C)=CC(=O)N1CCN(c2nc(OC[C@@H]3CCCN3C)nc3c2CCN(c2cccc4ccccc24)C3)CC1CC#N (stereo partly drawn) [Example 282, 2-(1-(3-methylbut-2-enoyl)-4-(2-(((S)-1-methylpyrrolidin-2-yl)methoxy)-7-(naphthalen-1-yl)-5,6,7,8-tetrahydropyrido[3,4-d]pyrimidin-4-yl)piperazin-2-yl)acetonitrile]	A (“A”≤25% POC)	> 1			
C=CC(=O)N1CCN(c2nc(OCCN(C)C)nc3c2CCN(c2cc(O)cc4ccccc24)C3)CC1CCO (centres unmarked) [Example 171, 1-(4-(2-(2-(dimethylamino)ethoxy)-7-(3-hydroxynaphthalen-1-yl)-5,6,7,8-tetrahydropyrido[3,4-d]pyrimidin-4-yl)-2-(2-hydroxyethyl)piperazin-1-yl)prop-2-en-1-one]			C (key: “A”≤25% POC; “B”>25% POC−≤50% POC; “C”>50% POC)	> 1	
C=CC(=O)N1CCN(c2nc(OCCc3ccccn3)nc3c2CCN(c2cc(O)cc4ccccc24)C3)CC1 [Example 126, 1-(4-(7-(3-hydroxynaphthalen-1-yl)-2-(2-(pyridin-2-yl)ethoxy)-5,6,7,8-tetrahydropyrido[3,4-d]pyrimidin-4-yl)piperazin 1-yl)prop-2-en-1-one trifluoroacetate]	C (“C”>50% POC)	> 1			
C=CC(=O)N1CCN(c2nc(OCCCN3CCOCC3)nc3c2CCN(c2cc(O)cc4ccccc24)C3)C(CO)C1 (centres unmarked) [Example 168, 1-(3-(hydroxymethyl)-4-(7-(3-hydroxynaphthalen-1-yl)-2-(3-morpholinopropoxy)-5,6,7,8-tetrahydropyrido[3,4-d]pyrimidin-4-yl)piperazin-1-yl)prop-2-en-1-one]	C (“C”>50% POC)				> 1
C=CC(=O)N1CCN(c2nc(OC[C@@H]3CCCN3C)nc3c2CCN(c2cccc4cccn24)C3)C[C@@H]1CC#N [Example 440, 2-((S)-1-acryloyl-4-(7-(indolizin-5-yl)-2-(((S)-1-methylpyrrolidin-2-yl)methoxy)-5,6,7,8-tetrahydropyrido[3,4-d]pyrimidin-4-yl)piperazin-2-yl)acetonitrile]	C (“C”>50% POC)	0.0001 to 1			
C=CC(=O)N1CCN(c2nc(O[C@H](C)CN(C)C)nc3c2CCN(c2c(C)ccc4[nH]ncc24)C3)CC1CC#N (stereo partly drawn) [Example 152, 2-[4-[2-[(1R)-2-(dimethylamino)-1-methyl-ethoxy]-7-(5-methyl-1H-indazol-4-yl)-6,8-dihydro-5H-pyrido[3,4-d]pyrimidin-4-yl]-1-prop-2-enoyl-piperazin-2-yl]acetonitrile]	C (“C”>50% POC)				0.0001 to 1
C=CC(=O)N1CCN(c2nc(OC[C@@H]3CCCN3C)nc3c2CCN(c2cccc4ccc(C)cc24)C3)C[C@@H]1CC#N [Example 326, 2-((S)-1-acryloyl-4-(7-(7-methylnaphthalen-1-yl)-2-(((S)-1-methylpyrrolidin-2-yl)methoxy)-5,6,7,8-tetrahydropyrido[3,4-d]pyrimidin-4-yl)piperazin-2-yl)acetonitrile]	C (“C”>50% POC)	0.0001 to 1			
C=CC(=O)N1CCN(c2nc(OC(C)CN(C)C)nc3c2CCN(c2cccc4ccccc24)C3)CC1 (centres unmarked) [Example 24, 1-(4-(2-((1-(dimethylamino)propan-2-yl)oxy)-7-(naphthalen-1-yl)-5,6,7,8-tetrahydropyrido[3,4-d]pyrimidin-4-yl)piperazin-1-yl)prop-2-en-1-one]	A (“A”≤25% POC)	> 1			
C=CC(=O)N1CCN(c2nc(OCC3CCN(C)C3)nc3c2CCN(c2cc(O)cc4ccccc24)C3)CC1 (stereo not drawn) [Example 89, 1-(4-(7-(3-hydroxynaphthalen-1-yl)-2-((l-methylpyrrolidin-3-yl)methoxy)-5,6,7,8-tetrahydropyrido[3,4-d]pyrimidin-4-yl)piperazin-1-yl)prop-2-en-1-one]	C (“C”>50% POC)	0.0001 to 1			
C=CC(=O)N1CCN(c2nc(OC[C@@H]3C[C@@H](F)CN3C)nc3c2CCN(c2cccc(C)c2C)C3)C[C@@H]1CC#N [Example 435, 2-((S)-1-acryloyl-4-(7-(2,3-dimethylphenyl)-2-(((2S,4R)-4-fluoro-1-methylpyrrolidin-2-yl)methoxy)-5,6,7,8-tetrahydropyrido[3,4-d]pyrimidin-4-yl)piperazin-2-yl)acetonitrile]	C (“C”>50% POC)	0.0001 to 1			
C=CC(=O)N1CCN(c2nc(OCCN3CCCCC3)nc3c2CCN(c2cccc4ccccc24)C3)CC1CC#N (centres unmarked) [Example 303, 2-[4-[7-(1-naphthyl)-2-[2-(1-piperidyl)ethoxy]-6,8-dihydro-5H-pyrido[3,4-d]pyrimidin-4-yl]-1-prop-2-enoyl-piperazin-2-yl]acetonitrile]	C (“C”>50% POC)	0.0001 to 1			
C=CC(=O)N1CCN(c2nc(OCCN3CCC(OC)CC3)nc3c2CCN(c2cc(O)cc4ccccc24)C3)CC1 [Example 108, 1-(4-(7-(3-hydroxynaphthalen-1-yl)-2-(2-(4-methoxypiperidin-1-yl)ethoxy)-5,6,7,8-tetrahydropyrido[3,4-d]pyrimidin-4-yl)piperazin-1-yl)prop-2-en-1-one]	C (“C”>50% POC)	0.0001 to 1			
C=CC(=O)N1CCN(c2nc(OC[C@@H]3CCN(C)C3)nc3c2CCN(c2cc(O)cc4ccccc24)C3)C[C@@H]1CC#N [Example 350, 2-((S)-1-acryloyl-4-(7-(3-hydroxynaphthalen-1-yl)-2-(((R)-1-methylpyrrolidin-3-yl)methoxy)-5,6,7,8-tetrahydropyrido[3,4-d]pyrimidin-4-yl)piperazin-2-yl)acetonitrile]	C (“C”>50% POC)	0.0001 to 1			
C=CC(=O)N1CCN(c2nc(OC[C@@H]3CCCN3C)nc3c2CCN(c2cccc(OC)c2F)C3)CC1CC#N (stereo partly drawn) [Example 307, 2-[4-[7-(2-fluoro-3-methoxy-phenyl)-2-[[(2S)-1-methylpyrrolidin-2-yl]methoxy]-6,8-dihydro-5H-pyrido[3,4-d]pyrimidin-4-yl]-1-prop-2-enoyl-piperazin-2-yl]acetonitrile]	C (“C”>50% POC)	> 1			
C=CC(=O)N1CCN(c2nc(OC(C)CN(C)C)nc3c2CCN(c2cc(O)cc4ccccc24)C3)CC1 (centres unmarked) [Example 11, 1-(4-(2-((1-(dimethylamino)propan-2-yl)oxy)-7-(3-hydroxynaphthalen-1-yl)-5,6,7,8-tetrahydropyrido[3,4-d]pyrimidin-4-yl)piperazin-1-yl)prop-2-en-1-one]	C (“C”>50% POC)	0.0001 to 1			
C=CC(=O)N1CCN(c2nc(OC[C@@H]3CCCCN3C)nc3c2CCN(c2cccc4ccccc24)C3)C[C@@H]1CC#N [Example 377, 2-((S)-1-acryloyl-4-(2-(((S)-1-methylpiperidin-2-yl)methoxy)-7-(naphthalen-1-yl)-5,6,7,8-tetrahydropyrido[3,4-d]pyrimidin-4-yl)piperazin-2-yl)acetonitrile]	C (“C”>50% POC)	0.0001 to 1			
C#CC[C@H]1CN(c2nc(OC[C@@H]3CCCN3C)nc3c2CCN(c2cccc4ccccc24)C3)CCN1C(=O)C=C [Example 358, 1-[(2S)-4-[2-[[(2S)-1-methylpyrrolidin-2-yl]methoxy]-7-(1-naphthyl)-6,8-dihydro-5H-pyrido[3,4-d]pyrimidin-4-yl]-2-prop-2-ynyl-piperazin-1-yl]prop-2-en-1-one]	C (“C”>50% POC)	0.0001 to 1			
CN1CCC[C@H]1COc1nc2c(c(N3CCN(C(=O)OCc4ccccc4)C(CC#N)C3)n1)CCN(c1ncccc1C(F)(F)F)C2 (stereo partly drawn) [Example 241, benzyl 2-(cyanomethyl)-4-(2-(((S)-1-methylpyrrolidin-2-yl)methoxy)-7-(3-(trifluoromethyl)pyridin-2-yl)-5,6,7,8-tetrahydropyrido[3,4-d]pyrimidin-4-yl)piperazine-1-carboxylate]	C (“C”>50% POC)	> 1			
C/C=C/C(=O)N1CCN(c2nc(OC[C@@H]3CCCN3C)nc3c2CCN(c2cccc4cccc(C)c24)C3)C[C@@H]1CC#N [Example 372, 2-((S)-1-((E)-but-2-enoyl)-4-(7-(8-methylnaphthalen-1-yl)-2-(((S)-1-methylpyrrolidin-2-yl)methoxy)-5,6,7,8-tetrahydropyrido[3,4-d]pyrimidin-4-yl)piperazin-2-yl)acetonitrile]	C (“C”>50% POC)	0.0001 to 1			
